Experimental data from ChEMBL document CHEMBL1143803, “Syntheses, characterization and in vitro antiamoebic activity of new Pd(II) complexes with 1-N-substituted thiocarbamoyl-3,5-diphenyl-2-pyrazoline derivatives” (Eur J Med Chem, 2007).

System: Entamoeba histolytica
Experiment: Antiamoebic activity against Entamoeba histolytica HM-1:IMSS after 72 hrs
Type: functional, organism-based

Row | IC50 [nM] | SMILES
1 | 450 | S=C(N1CCCc2ccccc21)N1N=C(c2ccccc2)CC1c1ccccc1 (stereo not drawn)
2 | 4790 | Cc1ccccc1NC(=S)N1N=C(c2ccccc2)CC1c1ccccc1 (stereo not drawn)
3 | 380 | Cc1ccc(NC(=S)N2N=C(c3ccccc3)CC2c2ccccc2)cc1 (stereo not drawn)
4 | 1600 | S=C(N1CCC(Cc2ccccc2)CC1)N1N=C(c2ccccc2)CC1c1ccccc1 (stereo not drawn)
5 | 11000 | S=C(NCc1ccccc1Cl)N1N=C(c2ccccc2)CC1c1ccccc1 (stereo not drawn)
6 | 10700 | Cc1cccc(NC(=S)N2N=C(c3ccccc3)CC2c2ccccc2)c1 (stereo not drawn)
7 | 2800 | CN(Cc1ccccc1)C(=S)N1N=C(c2ccccc2)CC1c1ccccc1 (stereo not drawn)
8 | 1800 | S=C(N1CCN(c2ccccc2)CC1)N1N=C(c2ccccc2)CC1c1ccccc1 (stereo not drawn)
